Laboratory results from publication PMC2442655, “Structure-Activity Relationship and Substrate-Dependent Phenomena in Effects of Ginsenosides on Activities of Drug-Metabolizing P450 Enzymes” (PLoS ONE, 2008).
Where a name gives a salt, the structure may show the parent alone. Read-outs that look alike come from different tables or passages of the source.

Assays:
CYP1A2 = molecular target: T1, CYP1A2 (Homo sapiens, UniProt P05177); test: Vivid CYP1A2 blue fluorescent assay; settings: for IC50: IC50 CYP1A2 blue, cDNA-expressed enzyme, Vivid blue substrate 3 µM; for inhibition at 30 min, 50 µM: human
T1 sequence (P05177 1-516): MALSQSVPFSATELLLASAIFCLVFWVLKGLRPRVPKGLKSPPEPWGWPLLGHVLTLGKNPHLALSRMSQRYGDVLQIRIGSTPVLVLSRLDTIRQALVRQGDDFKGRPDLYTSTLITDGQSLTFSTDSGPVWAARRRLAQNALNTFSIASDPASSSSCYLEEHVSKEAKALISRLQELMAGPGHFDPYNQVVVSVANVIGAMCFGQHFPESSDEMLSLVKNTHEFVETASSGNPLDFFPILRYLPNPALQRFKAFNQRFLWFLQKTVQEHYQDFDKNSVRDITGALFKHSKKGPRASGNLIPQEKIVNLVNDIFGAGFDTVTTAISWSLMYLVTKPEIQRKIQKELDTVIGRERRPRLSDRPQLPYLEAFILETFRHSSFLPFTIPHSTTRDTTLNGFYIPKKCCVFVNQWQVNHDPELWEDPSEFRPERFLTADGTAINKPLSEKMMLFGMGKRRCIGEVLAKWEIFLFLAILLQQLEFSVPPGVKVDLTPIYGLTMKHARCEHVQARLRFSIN
Description: (§1) The inhibition of the catalytic activities of cDNA-expressed human P450 enzymes by ginsenosides was determined using Vivid® P450 screening kits (CYP1A2 blue, CYP2C9 red, CYP2C19 blue, CYP2D6 blue, CYP3A4 green and red) according to the manufacturer's instructions (Invitrogen Corporation; Carlsbad, CA, USA).
(§2) In brief, the assays were carried out in Costar® black-wall 96-well plates with ultra thin clear bottoms (Corning Inc, Corning, NY, USA) in a kinetic assay mode. Stock solutions (10 mM) of ginsenosides in methanol were prepared and diluted to various concentrations (2.5× 100, 50, 10, 5, 1 µM). For each well, 40 µL of solution of test compounds or vehicle was incubated with 50 µL pre-mixture (mixture of BACULOSOMES® reagent, regeneration system and reaction buffer) at 37°C for 20 min. The reaction was initiated by adding 10 µL of a mixture of substrate and NADP^+ per well with a respective concentration of Vivid® substrate (Table 1). The plate was read immediately for fluorescence changes every 0.5 min at 37°C for 30 min using a FlexStation II384 fluorometric plate reader (Molecular Devices, Sunnyvale, CA, USA) with respective excitation and emission wavelengths for each P450 enzyme (Table 1). The final methanol volume in the reaction was less than or equal to 1%.

CYP2C9 = molecular target: T2, CYP2C9 (Homo sapiens, UniProt P11712); test: Vivid CYP2C9 red fluorescent assay; format: in vitro ADME; settings: for inhibition at 30 min, 50 µM: human
T2 construct: purchased Invitrogen Corporation
Description: In brief, the assays were carried out in Costar® black-wall 96-well plates with ultra thin clear bottoms (Corning Inc, Corning, NY, USA) in a kinetic assay mode. […] For each well, 40 µL of solution of test compounds or vehicle was incubated with 50 µL pre-mixture (mixture of BACULOSOMES® reagent, regeneration system and reaction buffer) at 37°C for 20 min. […] The final methanol volume in the reaction was less than or equal to 1%.

CYP2C19 = CYP2C19 (Homo sapiens, UniProt P33261); test: Vivid CYP2C19 blue fluorescent assay; settings: for inhibition at 30 min, 50 µM: human
Description: as §1, §2

CYP2D6 = CYP2D6 (Homo sapiens, UniProt P10635); test: Vivid CYP2D6 blue fluorescent assay; settings: for inhibition at 30 min, 50 µM: human
Description: as §1, §2

CYP3A4 [1] = molecular target: T3, CYP3A4 (Homo sapiens, UniProt P08684); test: Vivid CYP3A4 green fluorescent assay; settings: for inhibition at 30 min, 50 µM: human
Description: as §1, §2

CYP3A4 [2] = molecular target: T3, CYP3A4; test: Vivid CYP3A4 red fluorescent assay; settings: for inhibition at 30 min, 50 µM: human, recombinant (cDNA-expressed) CYP3A4 BACULOSOMES, probe Vivid red substrate 3 µM
Description: as §1, §2

[3] = recombinant (cDNA-expressed) CYP1A2 BACULOSOMES, probe Vivid blue substrate 3 µM
[4] = cDNA-expressed enzyme, Vivid red substrate 2 µM, maximum concentration 50 µM, read-out: IC50 CYP2C9 red
[5] = recombinant (cDNA-expressed) CYP2D6 BACULOSOMES, probe Vivid blue substrate 10 µM
[6] = recombinant (cDNA-expressed) CYP2C9 BACULOSOMES, probe Vivid red substrate 2 µM
[7] = recombinant (cDNA-expressed) CYP2C19 BACULOSOMES, probe Vivid blue substrate 10 µM
[8] = recombinant (cDNA-expressed) CYP3A4 BACULOSOMES, probe Vivid green substrate 2 µM

CYP2D6, sequence (P10635 whole entry): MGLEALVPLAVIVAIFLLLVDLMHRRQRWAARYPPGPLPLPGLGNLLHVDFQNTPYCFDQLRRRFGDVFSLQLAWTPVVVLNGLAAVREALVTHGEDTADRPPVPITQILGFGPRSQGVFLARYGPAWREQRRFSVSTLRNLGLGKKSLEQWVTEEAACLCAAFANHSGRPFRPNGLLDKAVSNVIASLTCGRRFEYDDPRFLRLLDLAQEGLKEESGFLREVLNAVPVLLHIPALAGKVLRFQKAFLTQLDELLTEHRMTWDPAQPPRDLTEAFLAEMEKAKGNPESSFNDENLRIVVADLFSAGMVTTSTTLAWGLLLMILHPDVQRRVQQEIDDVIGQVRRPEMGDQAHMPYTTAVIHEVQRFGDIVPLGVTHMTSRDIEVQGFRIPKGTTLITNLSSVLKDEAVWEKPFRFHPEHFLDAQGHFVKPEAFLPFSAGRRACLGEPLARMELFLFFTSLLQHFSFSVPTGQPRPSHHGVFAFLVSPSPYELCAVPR
T2 sequence (P11712 whole entry): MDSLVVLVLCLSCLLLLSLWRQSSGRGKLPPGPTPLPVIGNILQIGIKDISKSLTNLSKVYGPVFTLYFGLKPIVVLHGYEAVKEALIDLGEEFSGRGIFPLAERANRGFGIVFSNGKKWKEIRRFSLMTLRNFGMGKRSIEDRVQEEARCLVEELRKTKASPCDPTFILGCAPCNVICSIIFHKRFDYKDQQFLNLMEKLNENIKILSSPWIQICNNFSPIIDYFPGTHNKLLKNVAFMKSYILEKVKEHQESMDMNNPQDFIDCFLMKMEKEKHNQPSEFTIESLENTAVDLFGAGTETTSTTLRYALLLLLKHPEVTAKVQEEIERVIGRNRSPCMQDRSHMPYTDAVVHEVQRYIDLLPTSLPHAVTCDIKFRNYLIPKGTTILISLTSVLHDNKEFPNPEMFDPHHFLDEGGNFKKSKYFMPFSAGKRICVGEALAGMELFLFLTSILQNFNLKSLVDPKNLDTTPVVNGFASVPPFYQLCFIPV
T3 sequence (P08684 whole entry): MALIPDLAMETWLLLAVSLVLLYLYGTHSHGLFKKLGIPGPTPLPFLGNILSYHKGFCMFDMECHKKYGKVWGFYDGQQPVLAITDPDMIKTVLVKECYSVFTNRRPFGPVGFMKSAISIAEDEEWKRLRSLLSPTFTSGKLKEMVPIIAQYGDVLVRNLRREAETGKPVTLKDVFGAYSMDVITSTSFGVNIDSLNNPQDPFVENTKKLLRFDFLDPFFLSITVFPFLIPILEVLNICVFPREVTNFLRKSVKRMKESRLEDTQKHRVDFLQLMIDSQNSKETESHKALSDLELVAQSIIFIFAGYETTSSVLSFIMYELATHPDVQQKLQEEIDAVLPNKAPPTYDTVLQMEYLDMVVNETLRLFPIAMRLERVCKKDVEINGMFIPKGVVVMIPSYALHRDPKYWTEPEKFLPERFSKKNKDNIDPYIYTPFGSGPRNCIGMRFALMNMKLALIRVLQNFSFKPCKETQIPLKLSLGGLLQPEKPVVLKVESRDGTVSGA
CYP2C19, sequence (P33261 whole entry): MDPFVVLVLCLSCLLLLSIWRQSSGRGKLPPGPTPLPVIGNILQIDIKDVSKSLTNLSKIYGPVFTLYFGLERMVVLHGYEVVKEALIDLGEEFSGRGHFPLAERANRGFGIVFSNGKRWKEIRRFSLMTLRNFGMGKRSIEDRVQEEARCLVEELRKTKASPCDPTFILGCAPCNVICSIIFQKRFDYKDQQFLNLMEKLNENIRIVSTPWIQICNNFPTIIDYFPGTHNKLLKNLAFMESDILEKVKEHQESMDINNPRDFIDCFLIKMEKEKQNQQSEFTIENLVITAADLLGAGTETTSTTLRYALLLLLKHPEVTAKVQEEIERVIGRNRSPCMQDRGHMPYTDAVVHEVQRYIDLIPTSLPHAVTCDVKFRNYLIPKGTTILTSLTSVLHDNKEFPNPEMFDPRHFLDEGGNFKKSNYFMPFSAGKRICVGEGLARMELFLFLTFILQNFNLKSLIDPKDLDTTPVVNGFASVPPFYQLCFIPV

Row | IC50 (CYP1A2) | inhibition at 30 min, 50 µM (CYP1A2; [3]) | IC50 (CYP2C9; [4]) | IC50 (CYP2C19) | IC50 (CYP2D6) | inhibition at 30 min, 50 µM (CYP2D6; [5]) | IC50 (CYP3A4 [1]) | IC50 (CYP3A4 [2]) | inhibition at 30 min, 50 µM (CYP3A4 [2]) | inhibition at 30 min, 50 µM (CYP2C9; [6]) | inhibition at 30 min, 50 µM (CYP2C19; [7]) | inhibition at 30 min, 50 µM (CYP3A4 [1]; [8]) | Structure (SMILES) | Effect on CYP3A4 catalytic activity, Vivid red assay (CYP3A4 [2]; red substrate) | inhibition at 30 min, 50 µM (CYP1A2) | IC50 (CYP2C9) | inhibition at 30 min, 50 µM (CYP2C9) | inhibition at 30 min, 50 µM (CYP2C19) | inhibition at 30 min, 50 µM (CYP2D6) | inhibition at 30 min, 50 µM (CYP3A4 [1]) | IC50 (CYP2C19; read-out: IC50 CYP2C19 blue, cDNA-expressed enzyme, Vivid blue substrate 10 µM)
1 | > 100 µM | 17.1% | 6.7 µM | 19.2 µM | > 50 µM | 34.9% | 10.3 µM | 58.6 µM |  |  |  |  | CC(C)=CCC[C@@](C)(O)[C@H]1CC[C@]2(C)[C@@H]1[C@H](O)C[C@@H]1[C@@]3(C)CC[C@H](O)C(C)(C)[C@@H]3CC[C@]12C [20(R)-PPD] |  |  |  |  |  |  |  | 
2 | 23.8 µM |  | 9.1 µM | 45.9 µM | > 50 µM | 49.4% | 30.5 µM | 9.1 µM |  |  |  |  | CC(C)=CCC[C@](C)(O[C@@H]1O[C@H](CO)[C@@H](O)[C@H](O)[C@H]1O)[C@H]1CC[C@]2(C)[C@@H]1[C@H](O)C[C@@H]1[C@@]3(C)CC[C@H](O)C(C)(C)[C@@H]3CC[C@]12C [C-K, ginsenoside Compound K] |  |  |  |  |  |  |  | 
3 | 37.8 µM |  | > 50 µM | > 100 µM | > 50 µM | 29.1% | > 100 µM | > 100 µM | 4.4% | 25.2% | 20.6% | 10.1% | CC(C)=CCC[C@](C)(O[C@@H]1O[C@H](CO[C@@H]2O[C@H](CO)[C@@H](O)[C@H](O)[C@H]2O)[C@@H](O)[C@H](O)[C@H]1O)[C@H]1CC[C@]2(C)[C@@H]1[C@H](O)C[C@@H]1[C@@]3(C)CC[C@H](O[C@@H]4O[C@H](CO)[C@@H](O)[C@H](O)[C@H]4O[C@@H]4O[C@H](CO)[C@@H](O)[C@H](O)[C@H]4O)C(C)(C)[C@@H]3CC[C@]12C [Rb1] |  |  |  |  |  |  |  | 
4 | > 100 µM | 31.3% | > 50 µM | > 100 µM | > 50 µM | 49.4% | 99.7 µM | 68.8 µM |  | 17.6% | 5% |  | CC(C)=CCC[C@](C)(O[C@@H]1O[C@H](CO[C@@H]2OC[C@@H](O)[C@H](O)[C@H]2O)[C@@H](O)[C@H](O)[C@H]1O)[C@H]1CC[C@]2(C)[C@@H]1[C@H](O)C[C@@H]1[C@@]3(C)CC[C@H](O[C@@H]4O[C@H](CO)[C@@H](O)[C@H](O)[C@H]4O[C@@H]4O[C@H](CO)[C@@H](O)[C@H](O)[C@H]4O)C(C)(C)[C@@H]3CC[C@]12C [Rb3] |  |  |  |  |  |  |  | 
5 | > 100 µM | 28.1% | > 50 µM | > 100 µM | > 50 µM | 44.2% | > 100 µM | 66.1 µM |  | 38% | 8.8% | 4.3% | CC(C)=CCC[C@](C)(O[C@@H]1O[C@H](CO)[C@@H](O)[C@H](O)[C@H]1O)[C@H]1CC[C@]2(C)[C@@H]1[C@H](O)C[C@@H]1[C@@]3(C)CC[C@H](O)C(C)(C)[C@@H]3[C@@H](O[C@@H]3O[C@H](CO)[C@@H](O)[C@H](O)[C@H]3O[C@@H]3O[C@@H](C)[C@H](O)[C@@H](O)[C@H]3O)C[C@]12C [Re] |  |  |  |  |  |  |  | 
6 | > 100 µM | 30.2% | > 50 µM | > 100 µM | > 50 µM | 17.7% | > 100 µM | > 100 µM | 16.9% | 21.7% | 11.7% | 8.1% | CC(C)=CCC[C@](C)(O[C@@H]1O[C@H](CO)[C@@H](O)[C@H](O)[C@H]1O)[C@H]1CC[C@]2(C)[C@@H]1[C@H](O)C[C@@H]1[C@@]3(C)CC[C@H](O)C(C)(C)[C@@H]3[C@@H](O[C@@H]3O[C@H](CO)[C@@H](O)[C@H](O)[C@H]3O)C[C@]12C [Rg1] |  |  |  |  |  |  |  | 
7 | 32.4 µM |  | 18.5 µM | 47 µM | 9.3 µM |  | 86.4 µM | 25.2 µM |  |  |  |  | CC(C)=CCC[C@](C)(O)[C@H]1CC[C@]2(C)[C@@H]1[C@H](O)C[C@@H]1[C@@]3(C)CC[C@H](O[C@@H]4O[C@H](CO)[C@@H](O)[C@H](O)[C@H]4O[C@@H]4O[C@H](CO)[C@@H](O)[C@H](O)[C@H]4O)C(C)(C)[C@@H]3CC[C@]12C [Rg3] |  |  |  |  |  |  |  | 
8 |  |  |  |  |  |  |  |  |  |  |  |  | Clc1ccc(COC(Cn2ccnc2)c2ccc(Cl)cc2Cl)c(Cl)c1 (stereo not shown) [miconazole nitrate salt, reference compound] |  |  |  |  |  |  |  | 0.25 µM

Row | Structure (SMILES) | IC50 (CYP1A2) | inhibition at 30 min, 50 µM (CYP1A2; [3]) | IC50 (CYP2C9; [4]) | IC50 (CYP2C19) | IC50 (CYP2D6) | inhibition at 30 min, 50 µM (CYP2D6; [5]) | IC50 (CYP3A4 [1]) | IC50 (CYP3A4 [2]) | inhibition at 30 min, 50 µM (CYP3A4 [2]) | inhibition at 30 min, 50 µM (CYP2C9; [6]) | inhibition at 30 min, 50 µM (CYP2C19; [7]) | inhibition at 30 min, 50 µM (CYP3A4 [1]; [8]) | Effect on CYP3A4 catalytic activity, Vivid red assay (CYP3A4 [2]; red substrate) | inhibition at 30 min, 50 µM (CYP1A2) | IC50 (CYP2C9) | inhibition at 30 min, 50 µM (CYP2C9) | inhibition at 30 min, 50 µM (CYP2C19) | inhibition at 30 min, 50 µM (CYP2D6) | inhibition at 30 min, 50 µM (CYP3A4 [1]) | IC50 (CYP2C19; read-out: IC50 CYP2C19 blue, cDNA-expressed enzyme, Vivid blue substrate 10 µM)
9 | CC(C)(O)CCC[C@@](C)(O)[C@H]1CC[C@]2(C)[C@@H]1[C@H](O)C[C@@H]1[C@@]3(C)CC[C@H](O)C(C)(C)[C@@H]3[C@@H](O)C[C@]12C [20(R)-25-OH-PPT] | > 100 µM | 16.9% | 8.5 µM | 43.9 µM | > 50 µM | 10% | 27.2 µM |  |  |  |  |  | activated the catalytic activity of CYP3A4 |  |  |  |  |  |  | 
10 | CC(C)=CCC[C@](C)(O)[C@H]1CC[C@]2(C)[C@@H]1[C@H](O)C[C@@H]1[C@@]3(C)CC[C@H](O)C(C)(C)[C@@H]3[C@@H](O)C[C@]12C [PPT, protopanaxatriol] | > 100 µM | 13.1% | 31.6 µM | 46.9 µM | > 50 µM | 18.9% | 7.4 µM | > 100 µM | 39.4% |  |  |  |  |  |  |  |  |  |  | 
11 | CC(C)=CCC[C@](C)(O)[C@H]1CC[C@]2(C)[C@@H]1[C@H](O)C[C@@H]1[C@@]3(C)CC[C@H](O)C(C)(C)[C@@H]3[C@@H](O[C@@H]3O[C@H](CO)[C@@H](O)[C@H](O)[C@H]3O[C@@H]3O[C@@H](C)[C@H](O)[C@@H](O)[C@H]3O)C[C@]12C [Rg2] | > 100 µM |  |  | > 100 µM | > 50 µM |  | > 100 µM | 47 µM |  |  |  |  |  | 29.2% | > 50 µM | 20.1% | 14.8% | 37.2% | 19.4% | 
